A word on the DC50: it is the midpoint of the concentration-degradation curve.

The target of one experiment is IKZF3 Aiolos (Homo sapiens, UniProt Q96SW2+Q9UKT9). In words: Jurkat Cellular Degradation Assay (IKZF3 Aiolos). Type of experiment: cell-based. More on the design: endogenous in cells. To be noted: Jurkat cells, 72 h; for Dmax: human, 100% = no detectable protein remaining, read-out: IKZF3 Aiolos max % deg. observed. Here is the method:
Jurkat cells were plated at 80,000 cells/well in 40 μL RPMI+10% FBS in a 384-well cell culture plate prior to using acoustic dispensing technology for adding a compound of interest. Cell cultures were incubated for 72 h at 37° C. and 5% CO2. In order to facilitate analysis, cell cultures were spun down at 200 rpm for 5 min and the supernatant was discarded. After shaking the plate to dislodge the cell pellet, cells were resuspended in 50 μL of Fixation Buffer (eBioscience FoxP3 buffer set 00-5523-00) for 60 min at room temperature. After centrifuging and discarding the supernatant, cells were permeabilized with 50 μL of Permeabilization buffer (eBioscience FoxP3 buffer set 00-5523-00) for 10 min at room temperature. Following permeabilization, cells were spun down and the supernatant was replaced with 20 μL fluorescently labelled antibodies against Helios, Ikaros and Aiolos or corresponding Isotype controls in 1× Permeabilization buffer (Ikaros-Alexa488 [Biolegend, Cat #368408, 1:50], Helios-PE [CST, Cat #29360, 1:50], Aiolos-Alexa647 [Biolegend, Cat #371106 Biolegend, 1:25]) and staining reactions were incubated for 1 h at room temperature while protected from light. Subsequently, 30 μL of 1× Permeabilization buffer was added prior to centrifuging the cells and discarding the supernatant. Stained cells were resuspended in 25 μL of flow cytometry staining buffer [PBS+0.2% bovine serum albumin (BSA)] and analyzed using an Intellicyt Ique Plus flow cytometer.
Table A-1 lists the maximum observed degradation of the IKZF1 protein, IKZF2 protein, and IKZF3 protein as measured in the Jurkat Cellular Degradation assay. The results in Table A-I were rounded to two digits. In the Jurkat Cellular Degradation assay, a value of 100% indicated no detectable protein remaining or complete degradation of the protein; and a value of 0% indicated no detectable degradation of the protein by the test compound.

The next experiment addresses IKZF2 Helios (Homo sapiens, UniProt Q96SW2+Q9UKS7). In words: Human Regulatory T Cell Degradation Assay (IKZF2 Helios). Details: T cells were isolated from fresh healthy leukopaks; endogenous in cells; host or cells: FACS-sorted primary human CD4+ CD127low CD25+ Treg cells from healthy leukopaks. Type of experiment: cell-based. The following applies: human regulatory T cells, 20 hours; for Dmax: Regulatory T cell, 100% = no detectable protein remaining, read-out: IKZF2 Helios max % deg. observed; for DC50: concentration reducing protein level by 50% vs DMSO. How it is done: Cryopreserved human regulatory T cells were thawed in RPMI+10% FBS+20 ng/mL IL-2. After being spun at 1200 rpm for 5 mins, the cells were resuspended in RPMI+10% FBS+20 ng/ml and rested at 37° C. with 5% CO2 for 3 hours. The cells were then plated at 40,000 cells/well in 40 μL RPMI+10% FBS+20 ng/ml human IL~2 in a 384 well cell culture plate prior to using acoustic dispensing technology (ECHO 555) for adding compounds of interest. Cell cultures were incubated for 20 hours at 37° C. and 5% CO2. In order to facilitate analysis, cell cultures were spun down at 1200 rpm for 5 minutes and the supernatant was discarded using an EL406 plate washer. After washing three times with 70 μL PBS, cell pellets were resuspended in 50 μL of near IR viability staining solution (Life Technologies, Cat #L34975) and incubated for 30 minutes on ice protected from light. Cells were washed three times with 70 μL PBS+0.5% BSA using an EL406 plate washer. After shaking the plate to dislodge the cell pellet, cells were resuspended in 50 μL of Fixation Buffer (eBioScience FoxP3 buffer set 00-5523-00) for 60 minutes at room temperature. After centrifuging and discarding the supernatant, cells were permeabilized with 50 μL of permeabilization buffer (eBioScience FoxP3 buffer set 00-5523-00) for 10 minutes at room temperature. Following permeabilization, cells were spun down and the supernatant was replaced with 30 μL fluorescently labelled antibodies against the intracellular targets Helios (Helios-APC [BioLegend, Cat #137222, 1:50])]), Aiolos, and Ikaros Ix Permeabilization buffer and staining reactions were incubated for 1 hour at room temperature; protected from light. Subsequently, 30 μL of 1× Permeabilization buffer was added prior to centrifuging the cells and discarding the supernatant. Stained cells were resuspended in 30 μL of flow cytometry staining buffer (PBS+0.5% BSA) and analyzed using an Intellicyt Ique Plus flow cytometer.
Table B-1 lists the maximum observed degradation of the IKZF1 protein and IKZF2 protein as measured in the Human Regulatory Cell T Degradation assay. The results in Table B-1 were rounded to two digits. In the Human Regulatory T Cell Degradation assay, a value of 100% indicated no detectable protein remaining or complete degradation of the protein; and a value of 0% indicated no detectable degradation of the protein by the test compound.

Sequence of IKZF3 Aiolos (Q9UKT9 whole entry): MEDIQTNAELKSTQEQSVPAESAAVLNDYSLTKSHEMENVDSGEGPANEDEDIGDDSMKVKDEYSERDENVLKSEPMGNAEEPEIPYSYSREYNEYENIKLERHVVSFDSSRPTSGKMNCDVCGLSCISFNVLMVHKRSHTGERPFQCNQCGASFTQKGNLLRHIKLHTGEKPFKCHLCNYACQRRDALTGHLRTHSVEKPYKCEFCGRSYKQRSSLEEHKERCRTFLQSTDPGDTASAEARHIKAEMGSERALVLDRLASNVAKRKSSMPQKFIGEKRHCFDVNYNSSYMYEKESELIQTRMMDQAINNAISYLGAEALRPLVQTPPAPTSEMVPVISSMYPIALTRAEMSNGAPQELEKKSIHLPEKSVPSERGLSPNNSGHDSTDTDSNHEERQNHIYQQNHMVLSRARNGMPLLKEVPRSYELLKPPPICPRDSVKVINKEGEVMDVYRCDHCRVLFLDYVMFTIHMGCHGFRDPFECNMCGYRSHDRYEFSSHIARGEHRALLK
Sequence of IKZF3 Aiolos (Q96SW2 whole entry): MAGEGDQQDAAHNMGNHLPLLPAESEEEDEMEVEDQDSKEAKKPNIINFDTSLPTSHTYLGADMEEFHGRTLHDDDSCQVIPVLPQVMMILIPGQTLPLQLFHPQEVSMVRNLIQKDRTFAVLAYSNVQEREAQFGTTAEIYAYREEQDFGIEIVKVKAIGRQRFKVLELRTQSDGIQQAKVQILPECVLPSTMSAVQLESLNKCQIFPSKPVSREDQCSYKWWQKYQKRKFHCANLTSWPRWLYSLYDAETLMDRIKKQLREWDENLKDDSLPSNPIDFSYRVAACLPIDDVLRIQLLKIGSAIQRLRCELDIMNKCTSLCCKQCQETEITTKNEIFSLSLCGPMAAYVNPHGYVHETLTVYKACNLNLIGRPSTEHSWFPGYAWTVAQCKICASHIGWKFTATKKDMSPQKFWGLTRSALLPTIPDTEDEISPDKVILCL
Sequence of IKZF3 Aiolos (Q16531 whole entry partner): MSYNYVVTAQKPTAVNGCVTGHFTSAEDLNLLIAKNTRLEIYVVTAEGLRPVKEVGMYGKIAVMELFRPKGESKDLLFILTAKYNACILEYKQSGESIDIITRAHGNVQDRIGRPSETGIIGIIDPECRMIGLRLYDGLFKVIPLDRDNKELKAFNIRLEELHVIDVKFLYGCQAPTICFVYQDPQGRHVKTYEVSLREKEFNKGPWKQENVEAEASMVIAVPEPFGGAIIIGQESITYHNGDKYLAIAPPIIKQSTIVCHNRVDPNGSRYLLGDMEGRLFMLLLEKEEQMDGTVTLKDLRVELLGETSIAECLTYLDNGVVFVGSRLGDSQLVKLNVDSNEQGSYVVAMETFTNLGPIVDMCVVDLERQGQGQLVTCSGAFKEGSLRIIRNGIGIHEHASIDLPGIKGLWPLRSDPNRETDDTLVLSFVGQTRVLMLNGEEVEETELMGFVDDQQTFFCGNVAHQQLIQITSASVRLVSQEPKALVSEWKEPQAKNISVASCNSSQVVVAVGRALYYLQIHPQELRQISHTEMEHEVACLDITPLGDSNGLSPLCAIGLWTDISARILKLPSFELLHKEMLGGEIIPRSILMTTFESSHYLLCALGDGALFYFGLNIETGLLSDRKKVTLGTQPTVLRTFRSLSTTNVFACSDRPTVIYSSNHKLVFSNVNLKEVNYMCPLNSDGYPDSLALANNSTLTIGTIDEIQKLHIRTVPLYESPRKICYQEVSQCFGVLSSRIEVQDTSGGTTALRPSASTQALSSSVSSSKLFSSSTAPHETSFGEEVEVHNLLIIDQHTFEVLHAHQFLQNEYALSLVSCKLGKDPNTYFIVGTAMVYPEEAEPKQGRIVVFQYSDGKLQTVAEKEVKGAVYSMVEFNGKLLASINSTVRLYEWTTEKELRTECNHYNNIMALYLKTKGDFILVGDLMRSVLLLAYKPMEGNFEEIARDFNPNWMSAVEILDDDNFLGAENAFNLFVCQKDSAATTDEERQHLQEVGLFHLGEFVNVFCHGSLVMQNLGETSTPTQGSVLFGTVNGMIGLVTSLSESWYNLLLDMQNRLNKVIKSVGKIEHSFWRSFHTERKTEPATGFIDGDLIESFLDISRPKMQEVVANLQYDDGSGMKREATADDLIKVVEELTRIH
Sequence of IKZF2 Helios (Q9UKS7 whole entry): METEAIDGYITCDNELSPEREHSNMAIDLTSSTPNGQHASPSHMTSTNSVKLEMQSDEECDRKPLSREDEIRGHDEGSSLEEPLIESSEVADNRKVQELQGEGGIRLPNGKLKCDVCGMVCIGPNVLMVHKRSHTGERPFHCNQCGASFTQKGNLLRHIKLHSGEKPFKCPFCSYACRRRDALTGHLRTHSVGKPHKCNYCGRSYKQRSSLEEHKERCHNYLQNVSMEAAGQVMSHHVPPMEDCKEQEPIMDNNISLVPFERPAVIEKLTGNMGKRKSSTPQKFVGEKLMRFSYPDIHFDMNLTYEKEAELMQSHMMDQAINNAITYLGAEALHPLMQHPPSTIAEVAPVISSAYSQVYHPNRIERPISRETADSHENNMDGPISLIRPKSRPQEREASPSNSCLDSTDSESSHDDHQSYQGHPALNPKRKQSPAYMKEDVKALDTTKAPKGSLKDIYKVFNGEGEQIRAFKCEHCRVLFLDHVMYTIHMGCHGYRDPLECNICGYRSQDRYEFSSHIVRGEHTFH
Sequence of IKZF2 Helios (Q96SW2 whole entry): as the sequence (Q96SW2 whole entry) above
Sequence of IKZF2 Helios (Q16531 whole entry partner): as the sequence (Q16531 whole entry partner) above

Turning to `O=C1CCC(N2Cc3c(ccc(-c4cc(CN5CC(c6ccccc6)C5)ccn4)c3F)C2=O)C(=O)N1` (stereo not shown) [Comparative Compound A, 3-(4-fluoro-1-oxo-5-(4-((3-phenylazetidin-1-yl)methyl)pyridin-2-yl)isoindolin-2-yl) piperidine-2,6-dione], the Dmax was 14% on IKZF3 Aiolos and 101% at IKZF2 Helios. Also, the DC50 on IKZF2 Helios turned out to be 2.9 nM.

Turning to `Nc1nc(-c2ccc3c(c2)CN(C2CCC(=O)NC2=O)C3=O)ccc1CN1CC2(CCC2)C1` (stereo not shown) [Comparative Compound B, 3-(5-(5-((2-azaspiro[3.3]heptan-2-yl)methyl)-6-aminopyridin-2-yl)-1-oxoisoindolin-2-yl) piperidine-2,6-dione], the Dmax on IKZF3 Aiolos is 28%. Moreover, on IKZF2 Helios, the Dmax was 97% and it took 11 nM to reach half-maximal degradation (DC50).

Turning to `Nc1nc(-c2ccc3c(c2F)CN(C2CCC(=O)NC2=O)C3=O)ccc1CN1CC2(CCCOC2)C1` (stereo not shown) [Example 1, 3-(5-(5-((6-oxa-2-azaspiro[3.5]nonan-2-yl)methyl)-6-aminopyridin-2-yl)-4-fluoro-1-oxoisoindolin-2-yl) piperidine-2,6-dione], the half-maximal degradation concentration (DC50) at IKZF3 Aiolos (concentration reducing protein level by 50% vs DMSO) was over 10000 nM; at IKZF2 Helios, 10 nM. Besides, the Dmax on IKZF3 Aiolos was 33%; at IKZF2 Helios, 100%.

The values above are taken from US20260297106A1, “SPIROCYCLIC SUBSTITUTED OXOISOINDOLINYL PIPERIDINE-2,6-DIONE COMPOUND” (Bristol-Myers Squibb Company, priority 2023, published 2026).
